According to patent publication US12570639B2, “Tetrahydroquinoline derivative and medicinal use thereof” (Toray Industries, Inc., priority 2020, dated 2026):
Counter-ions that a name gives are not always drawn.

How the values were obtained:
[1] = test system: Human fibrosarcoma cells (HT-1080 cells); assay: In vitro inhibitory action against ferroptosis (Erastin-induced cell death, Cell Counting Kit-8); format: cell-based; conditions: Erastin 3 μmol/L, 24 hours
[2] = In vitro radical scavenging action (DPPH method); conditions: 30 minutes at room temperature, maximum concentration 100 μmol/L
Protocol: Radical scavenging action was evaluated using the DPPH method in the compound of Comparative Example 1, which is a tetrahydroquinoxaline derivative, and in the tetrahydroquinoline derivative (I) or a pharmaceutically acceptable salt thereof. The DPPH method was performed using an antioxidant capacity measurement kit (Dojindo Laboratories).
A test compound was dissolved in DMSO, and the resulting solution was then mixed with an assay buffer and a DPPH solution, which are included in the kit, to a total volume of 200 μL to obtain a final concentration of 10% DMSO, and the reaction was allowed to proceed. Wells added with 100 μmol/L ferrostatin-1, a radical scavenger, were grouped as “control,” and wells added with not test compound were grouped as “background.” The test compound was serially diluted 3-fold starting from a maximum concentration of 100 μmol/L, and the diluted test compound (1.2, 3.7, 11.1, 33.3, or 100 μmol/L) was added and allowed to react at room temperature. Thirty minutes after the reaction, the absorbance at 517 nm was measured, and the average absorbance value was calculated (N=2). The radical scavenging action of the test compound (hereinafter referred to as radical scavenging rate, %) was calculated based on the equation 2 below. The EC50 value of the test compound was calculated from the radical scavenging rate. Radical scavenging rate (%)=[1−{(Average absorbance value at 517 nm measured when a test compound is added)−(Average absorbance value at 517 nm measured in the background)}/{(Average absorbance value at 517 nm measured in the control)−(Average absorbance value at 517 nm measured in the background)}]×100 Equation 2
A note “no detection of radical scavenging action (N.D.),” is given to compounds with a EC50 of >100 μmol/L.

[3] = evaluation concentration 30 μmol/L
[4] = evaluation concentration 50 μmol/L
[5] = evaluation concentration 10 μmol/L

Row | EC50 [2] | SMILES | Ferroptosis inhibition rate (%) [1, 3] | Ferroptosis inhibition rate (%) [1, 4] | Ferroptosis inhibition rate (%) [1, 5] | Ferroptosis inhibition rate (%) ([1]; evaluation concentration 30 μmol/L, hydrochloride)
1 | > 100 µM | Fc1ccc2c(c1)NC(c1ccccc1)CC2 (centres unmarked) [Example 68, 7-fluoro-2-phenyl-1,2,3,4-tetrahydroquinoline] | 101.9% |  |  | 
2 | > 100 µM | Clc1ccc2c(c1)NC(c1ccccc1)CC2 (centres unmarked) [Example 69, 7-chloro-2-phenyl-1,2,3,4-tetrahydroquinoline] | 106.4% |  |  | 
3 | > 100 µM | FC(F)(F)Oc1ccc2c(c1)CCC(c1ccccc1)N2 (centres unmarked) [Example 81, 2-phenyl-6-(trifluoromethoxy)-1,2,3,4-tetrahydroquinoline] |  | 103.9% |  | 
4 | > 100 µM | Fc1ccc2c(c1)CCC(c1ccccc1)N2 (centres unmarked) [Example 82, 6-fluoro-2-phenyl-1,2,3,4-tetrahydroquinoline] | 112.6% |  |  | 
5 | > 100 µM | Clc1ccc2c(c1)CCC(c1ccccc1)N2 (centres unmarked) [Example 83, 6-chloro-2-phenyl-1,2,3,4-tetrahydroquinoline] |  | 103.8% |  | 
6 | > 100 µM | Fc1cc2c(cc1F)NC(c1ccccc1)CC2 (centres unmarked) [Example 85, 6,7-difluoro-2-phenyl-1,2,3,4-tetrahydroquinoline] |  | 94.94% |  | 
7 | > 100 µM | Cc1ccc2c(c1)CCC(c1ccc(C(N)=O)cc1)N2 (centres unmarked) [Example 99, 4-(6-methyl-1,2,3,4-tetrahydroquinolin-2-yl)benzamide] | 98.85% |  |  | 
8 | > 100 µM | Cc1ccc2c(c1)NC(c1ccc(S(N)(=O)=O)cc1)CC2 (centres unmarked) [Example 105, 4-(7-methyl-1,2,3,4-tetrahydroquinolin-2-yl)benzenesulfonamide] | 99.03% |  |  | 
9 | > 100 µM | Cc1ccc2c(c1)NC(c1ccc(C(N)=O)cc1)CC2 (centres unmarked) [Example 106, 4-(7-methyl-1,2,3,4-tetrahydroquinolin-2-yl)benzamide] | 111.7% |  |  | 
10 | > 100 µM | NS(=O)(=O)c1ccc(C2CCc3cc(F)ccc3N2)cc1 (centres unmarked) [Example 107, 4-(6-fluoro-1,2,3,4-tetrahydroquinolin-2-yl)benzenesulfonamide] | 100.8% |  |  | 
11 | > 100 µM | NS(=O)(=O)c1ccc(C2CCc3cc(F)ccc3N2)cc1 (centres unmarked) [Example 109, 4-(6-fluoro-1,2,3,4-tetrahydro-quinolin-2-yl)benzenesulfonamide] |  |  | 83.63% | 
12 | > 100 µM | Cc1cccc2c1CCC(c1ccc(S(N)(=O)=O)cc1)N2 (centres unmarked) [Example 112, 4-(5-methyl-1,2,3,4-tetrahydroquinolin-2-yl)benzenesulfonamide] | 105.5% |  |  | 
13 | > 100 µM | NS(=O)(=O)c1ccc(C2CCc3cc(Cl)ccc3N2)cc1 (centres unmarked) [Example 115, 4-(6-chloro-1,2,3,4-tetrahydroquinolin-2-yl)benzenesulfonamide] | 105.8% |  |  | 
14 | > 100 µM | NS(=O)(=O)c1ccc(C2CCc3cc(Cl)ccc3N2)cc1 (centres unmarked) [Example 116, 4-(6-chloro-1,2,3,4-tetrahydro-quinolin-2-yl)benzenesulfonamide] |  |  | 80.69% | 
15 | > 100 µM | NS(=O)(=O)c1ccc(C2CCc3ccc(F)cc3N2)cc1 (centres unmarked) [Example 118, 4-(7-fluoro-1,2,3,4-tetrahydroquinolin-2-yl)benzenesulfonamide] | 95.28% |  |  | 
16 | > 100 µM | Cc1ccc2c(c1)CCC(c1ccc(S(N)(=O)=O)cc1)N2 (centres unmarked) [Example 120, 4-(6-methyl-1,2,3,4-tetrahydroquinolin-2-yl)benzenesulfonamide] |  |  | 87.34% | 
17 | > 100 µM | NC(=O)c1ccc(C2CCc3cc(Cl)ccc3N2)cc1 (centres unmarked) [Example 121, 4-(6-chloro-1,2,3,4-tetrahydroquinolin-2-yl)benzamide] |  |  | 92.10% | 
18 | > 100 µM | NC(=O)c1ccc(C2CCc3cc(Cl)ccc3N2)cc1 (centres unmarked) [Example 122, 4-(6-chloro-1,2,3,4-tetrahydroquinolin-2-yl)benzamide] |  |  | 97.59% | 
19 | > 100 µM | NC(=O)c1ccc(C2CCc3cc(Cl)ccc3N2)cc1 (centres unmarked) [Example 131, 4-(6-chloro-1,2,3,4-tetrahydroquinolin-2-yl)benzamide] | 102.5% |  |  | 

Row | EC50 [2] | SMILES | Ferroptosis inhibition rate (%) [1, 3] | Ferroptosis inhibition rate (%) [1, 4] | Ferroptosis inhibition rate (%) [1, 5] | Ferroptosis inhibition rate (%) ([1]; evaluation concentration 30 μmol/L, hydrochloride)
20 | > 100 µM | NC(=O)c1ccc(C2CCc3cc(F)ccc3N2)cc1 (centres unmarked) [Example 132, 4-(6-fluoro-1,2,3,4-tetrahydroquinolin-2-yl)benzamide] | 105.6% |  |  | 
21 | > 100 µM | NS(=O)(=O)c1ccc(C2CCc3c(Cl)cccc3N2)cc1 (centres unmarked) [Example 134, 4-(5-chloro-1,2,3,4-tetrahydroquinolin-2-yl)benzenesulfonamide] | 77.77% |  |  | 
22 | > 100 µM | NS(=O)(=O)c1ccc(C2CCc3c(F)cccc3N2)cc1 (centres unmarked) [Example 135, 4-(5-fluoro-1,2,3,4-tetrahydroquinolin-2-yl)benzenesulfonamide] | 62.32% |  |  | 
23 | > 100 µM | CS(=O)(=O)Nc1ccc(C2CCc3ccccc3N2)cc1 (centres unmarked) [Example 136, N-(4-(1,2,3,4-tetrahydroquinolin-2-yl)phenyl)methanesulfonamide] | 75.50% |  |  | 
24 | > 100 µM | NC(=O)c1ccc(C2CCc3c(F)cccc3N2)cc1 (centres unmarked) [Example 137, 4-(5-fluoro-1,2,3,4-tetrahydroquinolin-2-yl)benzamide] | 93.06% |  |  | 
25 | > 100 µM | NC(=O)c1ccc(C2CCc3c(Cl)cccc3N2)cc1 (centres unmarked) [Example 138, 4-(5-chloro-1,2,3,4-tetrahydroquinolin-2-yl)benzamide] | 65.15% |  |  | 
26 | > 100 µM | O=C(Cc1ccc2c(c1)CCC(c1ccccc1)N2)N1CC(O)C1 (centres unmarked) [Example 143, 1-(3-hydroxyazetidin-1-yl)-2-(2-phenyl-1,2,3,4-tetrahydroquinolin-6-yl)ethan-1-one hydrochloride] |  |  |  | 93.97%
27 | > 100 µM | O=C(Cc1ccc2c(c1)CCC(c1ccccc1)N2)N1CCOCC1 (centres unmarked) [Example 145, 1-morpholino-2-(2-phenyl-1,2,3,4-tetrahydroquinolin-6-yl)ethan-1-one] | 102.0% |  |  | 
28 | > 100 µM | CC1(C)CN(C(=O)Cc2ccc3c(c2)CCC(c2ccccc2)N3)C1 (centres unmarked) [Example 146, 1-(3,3-dimethylazetidin-1-yl)-2-(2-phenyl-1,2,3,4-tetrahy-dro-quin-olin-6-yl)ethan-1-one] | 112.8% |  |  | 
29 | > 100 µM | COC1CN(C(=O)Cc2ccc3c(c2)CCC(c2ccccc2)N3)C1 (centres unmarked) [Example 147, 1-(3-methoxyazetidin-1-yl)-2-(2-phenyl-1,2,3,4-tetrahydroquinolin-6-yl)ethan-1-one] | 93.00% |  |  | 
30 | > 100 µM | O=C(Cc1ccc2c(c1)CCC(c1ccccc1)N2)NC1COC1 (centres unmarked) [Example 148, N-(oxetan-3-yl)-2-(2-phenyl-1,2,3,4-tetrahydroquinolin-6-yl)acetamide] | 86.55% |  |  | 
31 | > 100 µM | O=C(Cc1ccc2c(c1)CCC(c1ccccc1)N2)N1CC(F)(F)C1 (centres unmarked) [Example 149, 1-(3,3-difluoroazetidin-1-yl)-2-(2-phenyl-1,2,3,4-tetrahydroquinolin-6-yl)ethan-1-one] | 99.36% |  |  | 
32 | > 100 µM | CN(CCO)C(=O)Cc1ccc2c(c1)CCC(c1ccccc1)N2 (centres unmarked) [Example 150, N-(2-hydroxyethyl)-N-methyl-2-(2-phenyl-1,2,3,4-tetrahydroquino-lin-6-yl)acetamide] | 106.9% |  |  | 
33 | > 100 µM | O=C(Cc1ccc2c(c1)CCC(c1ccccc1)N2)N1CCC1 (centres unmarked) [Example 151, 1-(azetidin-1-yl)-2-(2-phenyl-1,2,3,4-tetrahydroquinolin-6-yl)ethan-1-one] | 108.2% |  |  | 
34 | > 100 µM | O=C(Cc1ccc2c(c1)CCC(c1ccccc1)N2)NC1CC1 (centres unmarked) [Example 152, N-cyclopropyl-2-(2-phenyl-1,2,3,4-tetrahydroquinolin-6-yl)acetamide] | 108.1% |  |  | 
35 | > 100 µM | O=C(Cc1ccc2c(c1)CCC(c1ccccc1)N2)NC1CCC1 (centres unmarked) [Example 155, N-cyclobutyl-2-(2-phenyl-1,2,3,4-tetrahydroquinolin-6-yl)acetamide] | 106.1% |  |  | 
36 | > 100 µM | O=C1CN(C(=O)Cc2ccc3c(c2)CCC(c2ccccc2)N3)CCN1 (centres unmarked) [Example 157] | 69.89% |  |  | 
37 | > 100 µM | O=C(Cc1ccc2c(c1)CCC(c1ccccc1)N2)N1CCNCC1 (centres unmarked) [Example 158, 2-(2-phenyl-1,2,3,4-tetrahydroquinolin-6-yl)-1-(piperazin-1-yl)ethan-1-one] | 55.98% |  |  | 
